Results: PubChem BioAssay (NCI)
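Grown in 96-well plates, cells were treated for 48 hours with each compound at five concentrations. Insufficient inhibition: endpoint recorded as highest concentration tested. Definition used: TGI = concentration required for complete inhibition of growth.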

How the values were obtained:
Test in all cases: NCI tumour cell line growth inhibition, 48 h
SNB-75 CNS = system: SNB-75 CNS
NCI-H23 lung = system: NCI-H23 lung
M19-MEL melanoma = system: M19-MEL melanoma
HCT-15 colon = system: HCT-15 colon
DMS 114 small cell lung = system: DMS 114 small cell lung
SF-539 CNS = system: SF-539 CNS
RXF 393 renal = system: RXF 393 renal
HT29 colon = system: HT29 colon
SK-OV-3 ovarian = system: SK-OV-3 ovarian
HCT-116 colon = system: HCT-116 colon
RPMI-8226 leukemia = system: RPMI-8226 leukemia
RXF-631 renal = system: RXF-631 renal
OVCAR-8 ovarian = system: OVCAR-8 ovarian
A549 NSCLC = system: A549 NSCLC
SNB-78 CNS = system: SNB-78 CNS
DLD-1 colon = system: DLD-1 colon
COLO 205 colon = system: COLO 205 colon
MALME-3M melanoma = system: MALME-3M melanoma
XF 498 CNS = system: XF 498 CNS
SF-295 CNS = system: SF-295 CNS
786-0 renal = system: 786-0 renal
MOLT-4 leukemia = system: MOLT-4 leukemia
CAKI-1 renal = system: CAKI-1 renal
IGROV1 ovarian = system: IGROV1 ovarian
NCI-H522 lung = system: NCI-H522 lung
NCI-H460 lung = system: NCI-H460 lung
UACC-62 melanoma = system: UACC-62 melanoma
SK-MEL-28 melanoma = system: SK-MEL-28 melanoma
ACHN renal = system: ACHN renal
DMS 273 small cell lung = system: DMS 273 small cell lung
NCI-H226 lung = system: NCI-H226 lung
TK-10 renal = system: TK-10 renal
SN12C renal = system: SN12C renal
KM20L2 colon = system: KM20L2 colon
U251 CNS = system: U251 CNS
OVCAR-5 ovarian = system: OVCAR-5 ovarian
SK-MEL-5 melanoma = system: SK-MEL-5 melanoma
UACC-257 melanoma = system: UACC-257 melanoma
OVCAR-4 ovarian = system: OVCAR-4 ovarian
HOP-18 NSCLC = system: HOP-18 NSCLC
SW-620 colon = system: SW-620 colon
UO-31 renal = system: UO-31 renal
KM12 colon = system: KM12 colon
K-562 leukemia = system: K-562 leukemia
EKVX NSCLC = system: EKVX NSCLC
HCC-2998 colon = system: HCC-2998 colon
SNB-19 CNS = system: SNB-19 CNS
SK-MEL-2 melanoma = system: SK-MEL-2 melanoma
LXFL 529 NSCLC = system: LXFL 529 NSCLC
MCF7 breast = system: MCF7 breast
NCI/ADR-RES ovarian = system: NCI/ADR-RES ovarian
P388/ADR leukemia = system: P388/ADR leukemia
P388 leukemia = system: P388 leukemia
SF-268 CNS = system: SF-268 CNS
HL-60(TB) leukemia = system: HL-60(TB) leukemia
CCRF-CEM leukemia = system: CCRF-CEM leukemia
SN12K1 renal = system: SN12K1 renal
HOP-62 NSCLC = system: HOP-62 NSCLC
OVCAR-3 ovarian = system: OVCAR-3 ovarian
HOP-92 NSCLC = system: HOP-92 NSCLC
A498 renal = system: A498 renal
LOX IMVI melanoma = system: LOX IMVI melanoma
M14 melanoma = system: M14 melanoma
SR leukemia = system: SR leukemia

COc1ccc(C(=O)/C(=N/Nc2ccccc2)c2ccc(OC)cc2)cc1
TGI (SNB-75 CNS): > 100 µM | TGI (NCI-H23 lung): > 100 µM | TGI (M19-MEL melanoma): > 100 µM | TGI (HCT-15 colon): > 100 µM | TGI (DMS 114 small cell lung): > 100 µM | TGI (SF-539 CNS): > 100 µM | TGI (RXF 393 renal): > 100 µM | TGI (HT29 colon): > 100 µM | TGI (SK-OV-3 ovarian): > 100 µM | TGI (HCT-116 colon): > 100 µM | TGI (RPMI-8226 leukemia): > 100 µM | TGI (RXF-631 renal): > 100 µM | TGI (OVCAR-8 ovarian): > 100 µM | TGI (A549 NSCLC): > 100 µM | TGI (SNB-78 CNS): > 100 µM | TGI (DLD-1 colon): > 100 µM | TGI (COLO 205 colon): > 100 µM | TGI (MALME-3M melanoma): > 100 µM | TGI (XF 498 CNS): > 100 µM | TGI (SF-295 CNS): > 100 µM | TGI (786-0 renal): > 100 µM | TGI (MOLT-4 leukemia): > 100 µM | TGI (CAKI-1 renal): > 100 µM | TGI (IGROV1 ovarian): > 100 µM | TGI (NCI-H522 lung): > 100 µM | TGI (NCI-H460 lung): > 100 µM | TGI (UACC-62 melanoma): > 100 µM | TGI (SK-MEL-28 melanoma): > 100 µM | TGI (ACHN renal): > 100 µM | TGI (DMS 273 small cell lung): > 100 µM | TGI (NCI-H226 lung): > 100 µM | TGI (TK-10 renal): > 100 µM | TGI (SN12C renal): > 100 µM | TGI (KM20L2 colon): 51.5 µM | TGI (U251 CNS): > 100 µM | TGI (OVCAR-5 ovarian): > 100 µM | TGI (SK-MEL-5 melanoma): > 100 µM | TGI (UACC-257 melanoma): > 100 µM | TGI (OVCAR-4 ovarian): > 100 µM | TGI (HOP-18 NSCLC): > 100 µM | TGI (SW-620 colon): > 100 µM | TGI (UO-31 renal): > 100 µM | TGI (KM12 colon): > 100 µM | TGI (K-562 leukemia): > 100 µM | TGI (EKVX NSCLC): > 100 µM | TGI (HCC-2998 colon): > 100 µM | TGI (SNB-19 CNS): > 100 µM | TGI (SK-MEL-2 melanoma): > 100 µM | TGI (LXFL 529 NSCLC): > 100 µM

CCCCC(NC(=O)CC)C(=O)O (configuration not stated)
TGI (SNB-75 CNS): > 100 µM | TGI (NCI-H23 lung): > 100 µM | TGI (M19-MEL melanoma): > 100 µM | TGI (HCT-15 colon): > 100 µM | TGI (DMS 114 small cell lung): > 100 µM | TGI (SF-539 CNS): > 100 µM | TGI (MCF7 breast): > 100 µM | TGI (HT29 colon): > 100 µM | TGI (SK-OV-3 ovarian): > 100 µM | TGI (HCT-116 colon): > 100 µM | TGI (RPMI-8226 leukemia): > 100 µM | TGI (OVCAR-8 ovarian): > 100 µM | TGI (A549 NSCLC): > 100 µM | TGI (SNB-78 CNS): > 100 µM | TGI (DLD-1 colon): > 100 µM | TGI (NCI/ADR-RES ovarian): > 100 µM | TGI (COLO 205 colon): > 100 µM | TGI (MALME-3M melanoma): > 100 µM | TGI (XF 498 CNS): > 100 µM | TGI (SF-295 CNS): > 100 µM | TGI (P388/ADR leukemia): > 100 µM | TGI (MOLT-4 leukemia): > 100 µM | TGI (CAKI-1 renal): > 100 µM | TGI (IGROV1 ovarian): > 100 µM | TGI (NCI-H522 lung): > 100 µM | TGI (NCI-H460 lung): > 100 µM | TGI (UACC-62 melanoma): > 100 µM | TGI (SK-MEL-28 melanoma): > 100 µM | TGI (P388 leukemia): > 100 µM | TGI (DMS 273 small cell lung): > 100 µM | TGI (SF-268 CNS): > 100 µM | TGI (HL-60(TB) leukemia): > 100 µM | TGI (CCRF-CEM leukemia): > 100 µM | TGI (NCI-H226 lung): > 100 µM | TGI (SN12C renal): > 100 µM | TGI (KM20L2 colon): > 100 µM | TGI (U251 CNS): > 100 µM | TGI (OVCAR-5 ovarian): > 100 µM | TGI (SK-MEL-5 melanoma): > 100 µM | TGI (UACC-257 melanoma): > 100 µM | TGI (OVCAR-4 ovarian): > 100 µM | TGI (HOP-18 NSCLC): > 100 µM | TGI (SW-620 colon): > 100 µM | TGI (SN12K1 renal): > 100 µM | TGI (UO-31 renal): > 100 µM | TGI (KM12 colon): > 100 µM | TGI (K-562 leukemia): > 100 µM | TGI (EKVX NSCLC): > 100 µM | TGI (HOP-62 NSCLC): > 100 µM | TGI (HCC-2998 colon): > 31.6 µM | TGI (OVCAR-3 ovarian): > 100 µM | TGI (HOP-92 NSCLC): > 100 µM | TGI (SNB-19 CNS): > 100 µM | TGI (SK-MEL-2 melanoma): > 100 µM | TGI (A498 renal): > 100 µM | TGI (LOX IMVI melanoma): > 100 µM

COc1ccc2c(c1)CCc1cnn(C3OC(COC(C)=O)C(OC(C)=O)C(OC(C)=O)C3OC(C)=O)c1-2 (configuration not stated)
TGI (SNB-75 CNS): > 100 µM | TGI (NCI-H23 lung): > 100 µM | TGI (M19-MEL melanoma): > 100 µM | TGI (HCT-15 colon): > 100 µM | TGI (DMS 114 small cell lung): > 100 µM | TGI (SF-539 CNS): > 100 µM | TGI (HT29 colon): > 100 µM | TGI (HCT-116 colon): > 100 µM | TGI (RPMI-8226 leukemia): 53.8 µM | TGI (RXF-631 renal): > 100 µM | TGI (OVCAR-8 ovarian): > 100 µM | TGI (A549 NSCLC): > 100 µM | TGI (SNB-78 CNS): > 100 µM | TGI (DLD-1 colon): > 100 µM | TGI (COLO 205 colon): > 100 µM | TGI (XF 498 CNS): 52.1 µM | TGI (SF-295 CNS): > 100 µM | TGI (786-0 renal): 75.6 µM | TGI (MOLT-4 leukemia): 74.3 µM | TGI (CAKI-1 renal): > 100 µM | TGI (NCI-H522 lung): 31.7 µM | TGI (NCI-H460 lung): > 100 µM | TGI (UACC-62 melanoma): > 100 µM | TGI (SK-MEL-28 melanoma): > 100 µM | TGI (M14 melanoma): > 100 µM | TGI (ACHN renal): > 100 µM | TGI (DMS 273 small cell lung): > 100 µM | TGI (SF-268 CNS): > 100 µM | TGI (HL-60(TB) leukemia): > 100 µM | TGI (CCRF-CEM leukemia): 60.5 µM | TGI (NCI-H226 lung): > 100 µM | TGI (TK-10 renal): > 100 µM | TGI (SN12C renal): > 100 µM | TGI (KM20L2 colon): 51.8 µM | TGI (U251 CNS): 65.6 µM | TGI (OVCAR-5 ovarian): > 100 µM | TGI (SK-MEL-5 melanoma): > 100 µM | TGI (UACC-257 melanoma): > 100 µM | TGI (SW-620 colon): 36.2 µM | TGI (SR leukemia): 70.5 µM | TGI (KM12 colon): > 100 µM | TGI (K-562 leukemia): > 100 µM | TGI (EKVX NSCLC): > 100 µM | TGI (HOP-62 NSCLC): > 100 µM | TGI (HCC-2998 colon): > 100 µM | TGI (OVCAR-3 ovarian): 56.7 µM | TGI (HOP-92 NSCLC): 51.5 µM | TGI (SNB-19 CNS): > 100 µM | TGI (SK-MEL-2 melanoma): > 100 µM | TGI (A498 renal): > 100 µM | TGI (LXFL 529 NSCLC): 41.4 µM | TGI (LOX IMVI melanoma): > 100 µM
